According to ChEMBL document CHEMBL5030507, “Structure-Based Design of a Selective Class I Histone Deacetylase (HDAC) Near-Infrared (NIR) Probe for Epigenetic Regulation Detection in Triple-Negative Breast Cancer (TNBC)” (J Med Chem, 2021):

What was measured:
[1] = biological target: T1, Polyamine deacetylase HDAC10 (Homo sapiens, UniProt Q969S8); assay: Inhibition of recombinant human N-terminal FLAG tagged HDAC10 (2 to 631 residues) expressed in baculovirus infected Sf9 insect cells using fluorogenic substrate measured after 60 mins by FRET assay
T1 sequence (Q969S8 whole entry): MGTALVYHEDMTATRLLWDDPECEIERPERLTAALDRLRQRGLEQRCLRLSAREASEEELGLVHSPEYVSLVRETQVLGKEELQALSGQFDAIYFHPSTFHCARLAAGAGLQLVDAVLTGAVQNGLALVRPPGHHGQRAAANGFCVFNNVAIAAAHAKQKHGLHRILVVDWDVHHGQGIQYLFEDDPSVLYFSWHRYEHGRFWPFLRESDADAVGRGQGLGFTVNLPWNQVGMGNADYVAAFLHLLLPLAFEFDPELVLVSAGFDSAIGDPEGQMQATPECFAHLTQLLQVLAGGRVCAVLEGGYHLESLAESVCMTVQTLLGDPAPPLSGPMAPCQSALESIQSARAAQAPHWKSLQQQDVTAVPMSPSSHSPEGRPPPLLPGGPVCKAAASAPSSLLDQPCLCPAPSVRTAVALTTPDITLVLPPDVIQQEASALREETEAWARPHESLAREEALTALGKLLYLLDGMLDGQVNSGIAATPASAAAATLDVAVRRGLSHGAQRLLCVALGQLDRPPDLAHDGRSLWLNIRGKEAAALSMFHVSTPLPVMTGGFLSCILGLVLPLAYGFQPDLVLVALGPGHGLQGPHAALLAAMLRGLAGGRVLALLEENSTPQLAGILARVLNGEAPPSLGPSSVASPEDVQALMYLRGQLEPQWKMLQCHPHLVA

[2] = Cytotoxicity against human WI-38 cells assessed as cell growth inhibition incubated for 72 hrs by CCK8 assay; type: cell-based
MDA-MB-231 = assay: Antiproliferative activity against triple-negative human MDA-MB-231 cells assessed as cell growth inhibition incubated for 72 hrs by CCK8 assay; type: functional
[3] = biological target: Histone deacetylase 3/Nuclear receptor corepressor 2 (HDAC3/NCoR2) (Homo sapiens, UniProt O15379); assay: Inhibition of C-terminal His-tagged recombinant human HDAC3 (1 to 428 residues)/N-terminal GST-tagged recombinant human NCoR2 (395 to 489 residues) co-expressed in baculovirus infected Sf9 cells using fluorometric substrate measured after 60 mins by FRET assay
[4] = Selectivity index, ratio of GI50 for cytotoxicity against human WI-38 cells to GI50 for antiproliferative activity against triple-negative human MDA-MB-231 cells; type: toxicity, cell-based; conditions: WI-38 cells versus MDA-MB-231 cells, read-out: RatioGI50
Histone deacetylase 9 = Histone deacetylase 9 (Homo sapiens, UniProt Q9UKV0); assay: Inhibition of recombinant human C-terminal His-tagged HDAC9 (604 to 1066 residues) expressed in baculovirus infected Sf9 insect cells using fluorogenic substrate measured after 60 mins by FRET assay
Histone deacetylase 8 = biological target: T2, Histone deacetylase 8 (Homo sapiens, UniProt Q9BY41); assay: Inhibition of recombinant human full length C-terminal His-tagged HDAC8 expressed in baculovirus infected Sf9 insect cells using fluorometric substrate measured after 60 mins by FRET assay
T2 sequence (Q9BY41 whole entry): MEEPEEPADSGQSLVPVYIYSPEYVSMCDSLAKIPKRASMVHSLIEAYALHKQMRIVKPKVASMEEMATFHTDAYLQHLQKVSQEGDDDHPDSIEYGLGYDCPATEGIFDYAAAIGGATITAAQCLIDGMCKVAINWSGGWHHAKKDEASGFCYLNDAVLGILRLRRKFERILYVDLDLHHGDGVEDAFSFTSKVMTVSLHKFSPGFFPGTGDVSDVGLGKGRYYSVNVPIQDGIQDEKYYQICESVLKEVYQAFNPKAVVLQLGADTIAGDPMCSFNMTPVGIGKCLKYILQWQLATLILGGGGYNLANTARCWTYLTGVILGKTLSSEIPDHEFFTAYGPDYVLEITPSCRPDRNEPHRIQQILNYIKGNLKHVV

Histone deacetylase 3/Nuclear receptor corepressor 2 (HDAC3/NCoR2), sequence (O15379 whole entry, the tested form may be a part): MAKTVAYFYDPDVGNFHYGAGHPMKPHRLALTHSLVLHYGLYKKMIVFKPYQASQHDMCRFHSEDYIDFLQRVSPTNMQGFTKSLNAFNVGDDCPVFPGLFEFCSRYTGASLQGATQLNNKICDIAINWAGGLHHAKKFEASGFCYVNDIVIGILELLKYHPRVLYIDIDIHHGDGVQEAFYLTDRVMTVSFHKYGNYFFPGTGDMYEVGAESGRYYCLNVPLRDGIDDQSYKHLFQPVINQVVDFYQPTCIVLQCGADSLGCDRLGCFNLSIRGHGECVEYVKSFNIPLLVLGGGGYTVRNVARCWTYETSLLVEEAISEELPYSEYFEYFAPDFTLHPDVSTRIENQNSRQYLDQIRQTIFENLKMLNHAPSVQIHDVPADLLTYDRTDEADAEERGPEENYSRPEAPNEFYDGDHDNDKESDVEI
Histone deacetylase 3/Nuclear receptor corepressor 2 (HDAC3/NCoR2), sequence (Q9Y618 whole entry, further chain, the tested form may be a part): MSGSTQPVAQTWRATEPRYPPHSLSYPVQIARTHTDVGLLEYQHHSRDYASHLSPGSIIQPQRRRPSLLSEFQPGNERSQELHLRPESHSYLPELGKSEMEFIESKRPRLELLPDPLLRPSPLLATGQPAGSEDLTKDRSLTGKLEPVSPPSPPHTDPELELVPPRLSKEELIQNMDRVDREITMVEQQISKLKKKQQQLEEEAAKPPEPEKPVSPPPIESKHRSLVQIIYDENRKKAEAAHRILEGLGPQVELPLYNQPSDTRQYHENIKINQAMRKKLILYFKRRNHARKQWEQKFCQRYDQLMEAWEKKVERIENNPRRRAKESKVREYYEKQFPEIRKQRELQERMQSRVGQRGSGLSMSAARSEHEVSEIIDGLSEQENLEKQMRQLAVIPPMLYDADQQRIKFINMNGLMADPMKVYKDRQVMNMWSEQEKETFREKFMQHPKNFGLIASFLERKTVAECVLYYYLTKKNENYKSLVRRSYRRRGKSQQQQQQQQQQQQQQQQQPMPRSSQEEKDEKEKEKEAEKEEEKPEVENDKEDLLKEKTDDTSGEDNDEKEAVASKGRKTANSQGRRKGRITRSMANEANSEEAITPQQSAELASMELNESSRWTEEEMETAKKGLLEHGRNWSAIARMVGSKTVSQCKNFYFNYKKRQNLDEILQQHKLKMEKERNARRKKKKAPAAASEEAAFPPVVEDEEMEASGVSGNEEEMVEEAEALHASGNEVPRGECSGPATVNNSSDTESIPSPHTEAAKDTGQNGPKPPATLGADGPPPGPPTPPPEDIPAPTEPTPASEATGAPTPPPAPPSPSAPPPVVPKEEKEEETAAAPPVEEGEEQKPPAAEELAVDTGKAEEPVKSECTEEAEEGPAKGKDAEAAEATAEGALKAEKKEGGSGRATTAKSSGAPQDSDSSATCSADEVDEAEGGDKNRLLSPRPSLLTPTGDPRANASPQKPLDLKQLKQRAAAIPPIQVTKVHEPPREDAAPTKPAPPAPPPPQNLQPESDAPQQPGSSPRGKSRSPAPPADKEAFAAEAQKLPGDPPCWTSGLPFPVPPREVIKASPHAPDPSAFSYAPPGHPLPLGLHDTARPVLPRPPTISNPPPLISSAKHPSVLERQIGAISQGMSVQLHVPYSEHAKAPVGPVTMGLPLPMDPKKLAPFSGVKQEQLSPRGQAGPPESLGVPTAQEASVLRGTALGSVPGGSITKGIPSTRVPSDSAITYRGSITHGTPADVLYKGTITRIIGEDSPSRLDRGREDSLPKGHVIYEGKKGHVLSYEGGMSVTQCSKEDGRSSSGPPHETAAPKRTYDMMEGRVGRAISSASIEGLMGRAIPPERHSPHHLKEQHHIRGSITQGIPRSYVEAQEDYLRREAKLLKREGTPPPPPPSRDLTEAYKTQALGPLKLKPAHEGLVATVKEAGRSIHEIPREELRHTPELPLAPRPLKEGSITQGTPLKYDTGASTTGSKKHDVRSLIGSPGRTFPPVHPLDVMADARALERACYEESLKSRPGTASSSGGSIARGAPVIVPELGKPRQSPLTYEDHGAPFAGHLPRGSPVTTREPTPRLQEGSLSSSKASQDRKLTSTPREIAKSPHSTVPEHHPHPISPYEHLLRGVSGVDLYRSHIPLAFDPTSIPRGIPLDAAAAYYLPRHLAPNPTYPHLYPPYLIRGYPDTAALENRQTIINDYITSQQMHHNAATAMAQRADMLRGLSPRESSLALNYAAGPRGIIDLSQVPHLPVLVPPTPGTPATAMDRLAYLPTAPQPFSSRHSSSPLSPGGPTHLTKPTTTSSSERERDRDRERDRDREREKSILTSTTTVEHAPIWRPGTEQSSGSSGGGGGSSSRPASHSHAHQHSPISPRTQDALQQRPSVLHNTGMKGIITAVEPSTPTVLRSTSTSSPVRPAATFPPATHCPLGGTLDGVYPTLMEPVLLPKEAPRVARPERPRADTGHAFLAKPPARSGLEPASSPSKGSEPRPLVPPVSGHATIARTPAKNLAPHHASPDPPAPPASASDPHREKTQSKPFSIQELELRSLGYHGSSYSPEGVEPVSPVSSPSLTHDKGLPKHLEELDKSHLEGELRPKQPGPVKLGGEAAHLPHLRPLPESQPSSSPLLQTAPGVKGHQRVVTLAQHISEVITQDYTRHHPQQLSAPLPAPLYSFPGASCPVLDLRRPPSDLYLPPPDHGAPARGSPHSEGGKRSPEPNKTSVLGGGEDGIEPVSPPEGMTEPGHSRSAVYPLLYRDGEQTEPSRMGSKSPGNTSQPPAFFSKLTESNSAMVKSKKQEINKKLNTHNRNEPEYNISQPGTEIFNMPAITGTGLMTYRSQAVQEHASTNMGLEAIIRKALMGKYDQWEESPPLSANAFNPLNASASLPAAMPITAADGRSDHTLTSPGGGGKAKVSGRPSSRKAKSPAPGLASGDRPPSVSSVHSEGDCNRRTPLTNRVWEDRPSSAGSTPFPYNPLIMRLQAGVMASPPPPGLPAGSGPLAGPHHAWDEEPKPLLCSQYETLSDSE
Histone deacetylase 9, sequence (Q9UKV0 whole entry, the tested form may be a part): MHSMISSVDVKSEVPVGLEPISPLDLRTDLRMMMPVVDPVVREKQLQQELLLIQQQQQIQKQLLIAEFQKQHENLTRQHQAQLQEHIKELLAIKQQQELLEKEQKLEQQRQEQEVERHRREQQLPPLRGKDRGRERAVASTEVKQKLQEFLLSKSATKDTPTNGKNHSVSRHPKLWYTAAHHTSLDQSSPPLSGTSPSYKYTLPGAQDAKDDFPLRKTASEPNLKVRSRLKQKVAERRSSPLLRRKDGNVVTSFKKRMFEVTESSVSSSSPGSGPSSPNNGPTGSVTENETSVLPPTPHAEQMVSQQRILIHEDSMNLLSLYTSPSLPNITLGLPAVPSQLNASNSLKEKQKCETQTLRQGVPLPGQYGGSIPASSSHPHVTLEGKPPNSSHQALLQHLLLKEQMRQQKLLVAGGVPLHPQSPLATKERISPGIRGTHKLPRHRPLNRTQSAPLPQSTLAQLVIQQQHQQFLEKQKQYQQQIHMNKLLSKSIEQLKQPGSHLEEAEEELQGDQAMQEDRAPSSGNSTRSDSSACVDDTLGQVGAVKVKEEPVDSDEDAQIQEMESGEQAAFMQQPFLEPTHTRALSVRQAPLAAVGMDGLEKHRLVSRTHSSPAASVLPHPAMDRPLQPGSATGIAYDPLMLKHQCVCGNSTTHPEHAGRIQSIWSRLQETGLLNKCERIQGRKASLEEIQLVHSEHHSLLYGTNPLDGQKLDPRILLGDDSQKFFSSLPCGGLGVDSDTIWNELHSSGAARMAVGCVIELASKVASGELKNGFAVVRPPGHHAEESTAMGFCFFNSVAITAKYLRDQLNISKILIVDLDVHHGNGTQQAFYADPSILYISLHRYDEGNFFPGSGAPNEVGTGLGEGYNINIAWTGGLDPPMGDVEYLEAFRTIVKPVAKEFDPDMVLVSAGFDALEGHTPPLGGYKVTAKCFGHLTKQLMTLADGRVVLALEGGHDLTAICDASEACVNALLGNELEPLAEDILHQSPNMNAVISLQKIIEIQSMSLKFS

For `C/C=C1\NC(=O)c2csc(n2)CNC(=O)C[C@@H](/C=C/CCSSCCCCCCC)OC(=O)[C@H](CCCCN)NC1=O`, the IC50 [1] was > 10 µM, the GI50 at 72 h [2] was 2.32 µM and the GI50 (MDA-MB-231) was 0.0119 µM. For the same compound, the IC50 [3] was 0.0103 µM, the selectivity ratio [4] was 194 and the IC50 (Histone deacetylase 9) was > 10 µM. For the same compound, the IC50 (Histone deacetylase 8) was > 10 µM.
